ChEMBL document CHEMBL1123767, “High-affinity leukotriene receptor antagonists. Synthesis and pharmacological characterization of 2-hydroxy-3-[(2-carboxyethyl)thio]-3-[2-(8-phenyloctyl)phenyl] propanoic acid” (J Med Chem, 1987)
Values belong to the molecule of their own block, whether it stands above or below them.

Assays:
[1] = molecular target: T1, Cysteinyl leukotriene receptor 1 (Cavia porcellus, UniProt Q2NNR5); experiment: Binding affinity against Cysteinyl leukotriene D4 receptor in guinea pig lung membranes using [3H]LTD4 as the radioligand.; format: cell membranes, Membrane
T1 sequence (Q2NNR5 whole entry): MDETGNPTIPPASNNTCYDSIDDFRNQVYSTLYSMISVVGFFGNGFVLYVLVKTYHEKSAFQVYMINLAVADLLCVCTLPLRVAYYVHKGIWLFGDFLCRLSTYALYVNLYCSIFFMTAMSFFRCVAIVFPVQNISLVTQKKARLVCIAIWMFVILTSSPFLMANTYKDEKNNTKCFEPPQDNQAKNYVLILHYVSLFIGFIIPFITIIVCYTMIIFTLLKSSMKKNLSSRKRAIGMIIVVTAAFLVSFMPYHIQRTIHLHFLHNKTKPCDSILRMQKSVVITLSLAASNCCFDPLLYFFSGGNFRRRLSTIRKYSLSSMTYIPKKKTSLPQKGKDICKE

Cavia porcellus [2] = organism: Cavia porcellus; experiment: In vitro ability to antagonize LTD4-induced contractions of guinea pig smooth muscle (trachea) at 3 uM concentration.; format: functional
Homo sapiens [3] = organism: Homo sapiens; experiment: In vitro ability to antagonize LTC4-induced contractions of human smooth muscle (bronchus) at 3 uM concentration.; format: functional
Homo sapiens [4] = organism: Homo sapiens; experiment: In vitro ability to antagonize LTD4-induced contractions of human airway smooth muscle (bronchus) at 3 uM concentration; format: functional
[5] = molecular target: T2, Cysteinyl leukotriene receptor 1 (Homo sapiens, UniProt Q9Y271); experiment: Binding affinity against Cysteinyl leukotriene D4 receptor in human lung membranes using [3H]LTD4 as the radioligand.; format: cell membranes, Membrane
T2 sequence (Q9Y271 whole entry): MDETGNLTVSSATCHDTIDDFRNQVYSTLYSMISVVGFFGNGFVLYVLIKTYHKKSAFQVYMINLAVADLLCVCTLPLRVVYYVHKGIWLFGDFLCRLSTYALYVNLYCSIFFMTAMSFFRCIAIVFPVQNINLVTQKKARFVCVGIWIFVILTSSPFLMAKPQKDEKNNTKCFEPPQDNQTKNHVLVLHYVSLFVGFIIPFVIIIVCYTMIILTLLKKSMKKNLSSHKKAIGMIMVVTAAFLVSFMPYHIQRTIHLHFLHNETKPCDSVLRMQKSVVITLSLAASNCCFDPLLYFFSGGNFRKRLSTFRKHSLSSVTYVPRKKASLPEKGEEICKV

[6] = molecular target: T3, Cysteinyl leukotriene receptor 1 (Cavia porcellus) (UniProt Q2NNR5); settings: Trachea, 3 uM
T3 sequence (whole entry): T1 sequence (Q2NNR5 whole entry)
Description: In vitro ability to antagonize LTC4-induced contractions of guinea pig smooth muscle (trachea) at 3 uM concentration.

Cavia porcellus [7] = organism: Cavia porcellus; experiment: In vitro ability to antagonize LTD4-induced contractions of guinea pig smooth muscle (trachea) at 10 uM concentration.; format: functional
Cavia porcellus [8] = organism: Cavia porcellus; experiment: (§1) In vitro ability to antagonize LTC4-induced contractions of guinea pig smooth muscle (trachea) at 10 uM concentration.; format: functional
Homo sapiens [9] = organism: Homo sapiens; experiment: In vitro ability to antagonize LTC4-induced contractions of human smooth muscle (bronchus) at 10 uM concentration.; format: functional
Homo sapiens [10] = organism: Homo sapiens; experiment: Ability to antagonize LTD4-induced contractions of human airway smooth muscle (bronchus) at 10 uM concentration; format: functional
[11] = molecular target: T3, Cysteinyl leukotriene receptor 1 (Cavia porcellus); experiment: as §1; format: functional, tissue-based

Ki [1]: 5 nM | Ki [5]: 10 nM | pKb [6]: < 5.4
Compound: O=C(O)CCS[C@H](c1ccccc1CCCCCCCCc1ccccc1)[C@@H](O)C(=O)O [POBILUKAST]
pKb (Cavia porcellus [2]): 8.6 | pKb (Homo sapiens [3]): 8.3 | pKb (Homo sapiens [4]): 8.2

Compound: CCCc1c(OCC(O)COc2ccc3c(=O)cc(C(=O)O)oc3c2CCC)ccc(C(C)=O)c1O (stereo not given) [FPL-55712]
pKb (Cavia porcellus [7]): 6.7 | pKb (Cavia porcellus [8]): 4.9 | pKb (Homo sapiens [9]): 6.4 | pKb (Homo sapiens [10]): 5.8

Ki [1]: 180 nM
Compound: O=C(O)CCS[C@@H](c1ccccc1CCCCCCCCc1ccccc1)[C@H](O)C(=O)O
pKb (Cavia porcellus [7]): 6.1

Ki [1]: 60 nM | pKb [11]: 5.1
Compound: O=C(O)CCSC(CC(=O)O)c1ccccc1CCCCCCCCc1ccccc1 (stereo not given)
pKb (Cavia porcellus [7]): 7
